In patent US20190381127A1, “COMBINATION THERAPY WITH A6, CHEMOTHERAPEUTIC AGENTS, RADIATION THERAPY, OR A COMBINATION THEREOF FOR THE TREATMENT OF CANCER” (Splash Pharmaceuticals, Inc., priority 2016, published 2019):

Key:
[1] = tested on: A2780 cells; assay: CCK-8 cytotoxicity, A6 plus DDP; type: cell-based, human; details: A6 1, 10 or 100 μM 1 h, then 1 h A6 plus DDP; 10% FBS
Description: Study Conditions. Drugs: DDP (3.33 mM stock) and A6 (109.8 mM stock); Drug exposure time: 1 hour; Cell line: A2780 and its DDP-resistant subline A2780/CP; Media: RPMI 1640 plus 10% FBS containing 1 mM penicillin/streptomycin; Cytotoxicity Assays: CCK-8 (Cell Counting Kit 8—Dojindo Molecular Technologies).
Tissue culture plates containing 96-well plates were seeded with 4000 cells in 100 μl of media per well. The wells on rows A-D were seeded with A2780 cells, while the wells on rows E-H were seeded with A2780/CP cells. The cells were allowed to attach overnight in a 37° C. in 5% CO2 incubator. Approximately 24 h later medium was removed by aspiration and the cells were exposed to 0, 1, 10 or 100 μM A6 peptide in 100 μl. After 1 h, increasing concentrations of DDP were added to triplicate wells in 100 μl medium. Following a 1 h exposure to the combination of A6 and DDP, the drugs were removed by aspiration. The cells were then allowed to grow for 96 h following which the plates were assayed for relative cell growth with the CCK-8 assay.

[2] = molecular target: CD44 (Homo sapiens, UniProt P16070); assay: Perturbation of anti-CD44 antibody binding to SKOV3 cells
[3] = tested on: human PC-3M-LN4 prostate cancer cells; assay: Orthotopic prostate cancer metastasis model; type: in vivo, BALB/c (nu/nu) mice
Description: Prostate: A model of prostate cancer was used to evaluate the antimetastatic effect of A6 in mice. Metastases to lymph nodes were measured following the orthotopic injection of human PC-3M-LN4 prostate cancer cells into the prostates of BALB/c (nu/nu) mice.

[4] = human, in vivo
[5] = tested on: bovine retinal microvascular endothelial cells; assay: Retinal endothelial cell VE-cadherin / MMP study; type: cell-based
[6] = tested on: retinal microvascular endothelial cell invasion; assay: HGF-induced retinal endothelial cell invasion; type: cell-based
Description: The effect of A6 on HGF and its receptor, c-Met, in retinal angiogenesis has been examined.

[7] = tested on: retina of diabetic rats; assay: Streptozotocin diabetic retinopathy model; parameters: species or system Brown Norway rats; details: rat, in vivo
[8] = tested on: B16-F10 melanoma cells; assay: B16-F10 lung metastatic model; type: in vivo, C57BL/6 mice; details: tail vein injection; lungs evaluated at day 11
Description: Melanoma: The well characterized B16-F 10 lung metastatic model was employed to determine the ability of A6 to inhibit the colonization of secondary tissues by circulating cancer cells. […] Melanoma cells were injected into the tail veins of C57BL/6 mice to simulate a burden of metastasizing cells and the lungs were then evaluated for lesions at day 11.

[9] = tested on: human CLL B-cell lymphocytes; assay: CLL B-cell lymphocytes in vitro
[10] = tested on: 2008 cells; assay: CCK-8 cytotoxicity, A6 plus DDP; type: cell-based, human; details: A6 1, 10 or 100 μM 1 h, then 1 h A6 plus DDP; 10% FBS
Description: Conditions: Drugs: DDP (3.33 mM stock) and A6 (109.8 mM stock); Drug exposure time: 1 hour ; Cell line: 2008 and its DDP-resistant subline 2008/C31*5.25; Media: RPMI 1640 plus 10% FBS containing 1 mM penicillin/streptomycin; Cytotoxicity Assays: CCK-8 (Cell Counting Kit 8—Dojindo Molecular Technologies).
Tissue culture plates containing 96-well plates were seeded with 3000 cells in 100 μl of media per well. The wells on rows A-D were seeded with 2008 cells, while the wells on rows E-H were seeded with 2008/C13*5.25 cells. The cells were allowed to attach overnight in a 37° C. in 5% CO2 incubator. Approximately 24 h later medium was removed by aspiration and the cells were exposed to 0, 1, 10 or 100 μM A6 peptide in 100 μl. After 1 h, increasing concentrations of DDP were added to triplicate wells in 100 μl medium. Following a 1 h exposure to the combination of A6 and DDP, the drugs were removed by aspiration. The cells were then allowed to grow for 96 h following which the plates were assayed for relative cell growth with the CCK-8 assay.
The assay was performed using triplicate wells for each DDP concentration. […]

[11] = tested on: advanced gynecologic cancer; assay: Phase 1b trial in advanced gynecologic cancer
Description: Advanced Gynecologic Cancer: A Phase 1b trial, was conducted in women with advanced gynecologic cancer. […] The study used a sequential dose-escalation design, with the lowest-dose group (4 patients) receiving A6 for cycles of 14 days “on” followed by 14 days “off”, a regimen not expected to produce any therapeutic effect. […] Patients continued treatment until disease progression or unacceptable toxicity. Response was evaluated as defined by RECIST and the Gynecologic Cancer Intergroup (GCIG) CA-125 response criteria.

[12] = tested on: IGROV-1/CP cells; assay: CCK-8 cytotoxicity, A6 plus DDP; type: cell-based, human; details: A6 1, 10 or 100 μM 1 h, then 1 h A6 plus DDP
Description: Study Conditions. Drugs: […] Drug exposure time: 1 hour; Cell line: IGROV-1 and its DDP-resistant subline IGROV-1/CP; Media: RPMI 1640 plus 10% FBS containing 1 mM penicillin/streptomycin; Cytotoxicity Assays: CCK-8 (Cell Counting Kit 8—Dojindo Molecular Technologies). Tissue culture plates containing 96-well plates were seeded with 4000 cells in 100 μl of media per well. The wells on rows A-D were seeded with IGROV-1 cells, while the wells on rows E-H were seeded with IGROV-1/CP cells. […] After 1 h, increasing concentrations of DDP were added to triplicate wells in […] medium. […] The cells were then allowed to grow for 96 h following which the plates were assayed for relative cell growth with the CCK-8 assay. CCK-8 assay. […] of CCK-8 stain was added to each well and the plate was incubated at 37° C. incubator for 4 h. The plate was read with a microplate reader at a wavelength of 450 nm. (See FIGS. 7A-7D and FIG. 8). The assay was performed using triplicate wells for each DDP concentration. The data in the tables below is the optical density in the well which is a function of the number of live cells remaining at the end of the 96 h growth period.

[13] = tested on: breast cancer; assay: Compassionate use, breast cancer patient; type: in vivo, human; details: A6 150 mg/day for 9 years, after Taxol 268 mg daily for 2 weeks
Description: A6 was administered in combination with paclitaxel as a compassionate use.

[14] = tested on: A2780/CP cells; assay: CCK-8 cytotoxicity, A6 plus DDP; type: cell-based, human; details: A6 1, 10 or 100 μM 1 h, then 1 h A6 plus DDP; 10% FBS
Description: Study Conditions. Drugs: […] Drug exposure time: 1 hour; Cell line: […] Media: RPMI 1640 plus 10% FBS containing 1 mM penicillin/streptomycin; Cytotoxicity Assays: CCK-8 (Cell Counting Kit 8-Dojindo Molecular Technologies). Tissue culture plates containing 96-well plates were seeded with 4000 cells in 100 μl of media per well. The wells on rows A-[…] cells, while the wells on rows E-[…]/CP cells. […] After 1 h, increasing concentrations of DDP were added to triplicate wells in 100 μl medium. […] The cells were then allowed to grow for 96 h following which the plates were assayed for relative cell growth with the CCK-8 assay. CCK-8 assay. Five μl of CCK-8 stain was added to each well and the plate was incubated at 37° C. incubator for 4 h. The plate was read with a microplate reader at a wavelength of 450 nm. (See FIGS. 5A-5D and FIG. 6). The assay was performed using triplicate wells for each DDP concentration. The data in the tables below is the optical density in the well which is a function of the number of live cells remaining at the end of the 96 h growth period.

[15] = tested on: B16-F10 cells; assay: Inhibition of chemotaxis; type: cell-based; details: read-out: IC50 for A6 inhibition of chemotaxis
[16] = tested on: persistent or recurrent epithelial ovarian, fallopian tube, or primary peritoneal carcinoma; assay: Phase 2 trial, persistent or recurrent ovarian cancer
Description: Persistent or Recurrent Ovarian Cancer: A Phase 2 trial was conducted in patients with persistent or recurrent epithelial ovarian, fallopian tube, or primary peritoneal carcinoma to evaluate A6 in a patient population with a disease burden greater than that presented in the previously described MOR trial. Patients had received one prior platinum-based chemotherapeutic regimen and were allowed to have received one additional cytotoxic regimen for the management of recurrent or persistent disease. Patients received a 150 mg twice daily subcutaneous dose of A6 and continued on treatment until disease progression or unacceptable toxicity. Response criteria were as defined by RECIST. Primary measures of clinical efficacy were objective tumor response and PFS at 6 months compared to a historical Gynecologic Oncology Group (GOG) dataset based on a similar population of patients.

[17] = 150 mg twice daily subcutaneous

Sequence of CD44 (P16070 21-742): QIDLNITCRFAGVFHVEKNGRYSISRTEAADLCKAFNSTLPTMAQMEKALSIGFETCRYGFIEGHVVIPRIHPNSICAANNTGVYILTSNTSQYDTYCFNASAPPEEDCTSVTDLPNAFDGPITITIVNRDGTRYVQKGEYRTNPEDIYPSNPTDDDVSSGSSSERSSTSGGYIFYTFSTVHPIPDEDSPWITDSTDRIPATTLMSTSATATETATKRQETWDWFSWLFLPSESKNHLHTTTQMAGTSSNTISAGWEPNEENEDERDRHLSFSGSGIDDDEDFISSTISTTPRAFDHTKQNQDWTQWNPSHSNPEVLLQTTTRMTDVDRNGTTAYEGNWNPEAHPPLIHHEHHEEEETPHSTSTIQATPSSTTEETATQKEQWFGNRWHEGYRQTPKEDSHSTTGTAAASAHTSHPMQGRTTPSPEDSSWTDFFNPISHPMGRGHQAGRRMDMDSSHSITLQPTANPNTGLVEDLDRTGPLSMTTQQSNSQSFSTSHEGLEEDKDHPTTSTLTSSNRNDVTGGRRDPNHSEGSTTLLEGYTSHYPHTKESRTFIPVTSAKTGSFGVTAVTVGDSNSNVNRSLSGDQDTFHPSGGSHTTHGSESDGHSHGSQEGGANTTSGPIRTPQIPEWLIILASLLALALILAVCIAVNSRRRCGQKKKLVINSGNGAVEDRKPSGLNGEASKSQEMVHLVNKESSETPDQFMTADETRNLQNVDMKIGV

For Ac-KPSSPPEE-NH2 [A6, Ac-KPSSPPEE-NH2], the “modulation of sensitivity to DDP” value [1] was “failed to modulate the sensitivity”, the “binding of the anti-CD44 antibody DF1485 to CD44-expressing SKOV3 cells” value ([2]; antibody DF1485) was “partial inhibition” and the “binding of the anti-CD44 antibody IM7” value ([2]; antibody IM7) was “did not interfere”. The “percentage of mice with lymph node metastases” value ([3]; more than 70% in the control group) was no less than 22%, the “reduction of lymph node volume” value ([3]; mouse, in vivo) was no more than 70% and the half-life [4] was 1.8 to 2 h. The “MMP dependent VE-cadherin degradation and loss of permeability” value [5] was “inhibit MMP dependent VE-cadherin degradation and the loss of permeability”, the “secretion and activation of MMP-2 and MMP-9” value [5] was “prevented the secretion and activation” and the “HGF-induced retinal endothelial cell invasion” value [6] was “reduced to control levels”. For the same substance, the “increase in microvascular permeability in the retina” value [7] was “inhibits the increase”, the “loss of vascular endothelial (VE)-cadherin” value [7] was “prevents the loss” and the “number of lung metastases, % of control” value [8] was 50%. For the same substance, the cytotoxicity in vitro [9] was “direct, dose-dependent, cytotoxicity”, the “expression of CD44 and ZAP-70” value [9] was “down modulates” and the “modulation of sensitivity to DDP” value [10] was “failed to modulate the sensitivity”. The “median time to progression (TTP)” value ([11]; continuous treatment) was 78 days, the safety outcome ([11]; in vivo) was “no specific toxicity profile” and the “median time to progression (TTP)” value ([11]; intermittent therapy (14 days on, 14 days off)) was 44 days. The “patients with disease stabilization” value ([11]; patients dosed continuously) was “Greater than 40%”, the “modulation of sensitivity to DDP” value [12] was “failed to modulate the sensitivity” and the clinical outcome [13] was “complete remission”. The “modulation of sensitivity to DDP” value [14] was “failed to modulate the sensitivity”, the IC50 [15] was 0.029 µM and the “evaluable patients achieving stable disease” value [16, 17] was 36%. The “patients progression free for at least 6 months” value [16, 17] was 6.5%, the objective tumor response ([16]; 150 mg twice daily subcutaneous, 31 eligible patients) was “no responses were observed” and the tolerability ([16]; in vivo) was “well tolerated”.
